Measurements from patent publication US20030124636A1, “Individualization of therapy with antiarrhythmics” (McGill University, priority 2001, published 2003).
Read-outs that look alike come from different tables or passages of the source. Marks after values point to notes of the source that are not given here.

Tests used:
1X-Ab = test: Competitive antigen ELISA, cross-reactivity of 1X-Ab; format: binding, rabbit; conditions: 0 = absence of inhibition or inhibition no higher than 40% at highest concentration tested (5 × 10^−3 M)
Method: (§1) Buffers and water without additives are filtered through millipore filters and kept for 1 week. BSA, antibodies, Tween™ 20 and horse radish peroxidase conjugates are added to these buffers and water just prior to use. Urine samples are usually collected 4 hours after drinking a cup of coffee (instant or brewed with approximately 100 mg of caffeine per cup) and stored at −80° C. The urine samples are diluted 10 times with sodium phosphate buffer (620 mosm, pH 7.50) and are subsequently diluted with water to give concentrations of AAMU and 1X no higher than 3×10^−6 M in the ELISA. All the pipettings are done with an eight-channel pipette, except those of the antibody and sample solutions. Starting with the last well, 100 μL of a carbonate buffer (100 mM, pH 9.6) containing 2.5 μg mL^−1 antibodies are added to each well. After 90 min. at room temperature, the wells are washed three times with […] of TPB: isotonic sodium phosphate buffer (310 mosm, pH 7.50) containing 0.05% Tween™ 20.
(§2) After the initial wash, unoccupied sites are blocked by incubation for 90 min. at room temperature with 100 μL TBP containing 3% BSA. The wells are washed four times with 100 μL TPB. […] The microplate is gently shaken with an orbital shaker at room temperature for 3-4 hours. The wells are washed three times with 100 μL TPB containing 1% BSA and three times with water containing 0.05% Tween™20. To the washed plate is added 150 μL of a substrate buffer composed of citric acid (25 mM) and sodium phosphate dibasic buffer (50 mM, pH 5.0) containing 0.06% hydrogen peroxide and 0.04% o-phenylenediamine hydrochloride.
(§3) Buffers and water without additives were filtered through millipore filters and kept for 1 week. BSA, antibodies, Tween™20 and horse radish peroxidase conjugates were added to these buffers and water just prior to use. Urine samples were usually collected 4 hours after drinking a cup of coffee (instant or brewed with approximately 100 mg of caffeine per cup) and stored at −80° C. They were diluted 10 times with sodium phosphate buffer (620 mosm, pH 7.50) and were subsequently diluted with water to give concentrations of AAMU and 1X no higher than 3×10^−6 M in the ELISA. All the pipettings were done with an eight-channel pipette, except those of the antibody and sample solutions. Starting with the last well, 100 μL of a carbonate buffer (100 mM, pH 9.6) containing 2.5 μg mL^−1 antibodies was pipetted. After 90 min. at room temperature, the wells were washed three times with 100 μL of TPB: isotonic sodium phosphate buffer (310 mosm, pH 7.50) containing 0.05% Tween™ 20.
(§4) After the initial wash, unoccupied sites were blocked by incubation for 90 min. at room temperature with 100 μL TBP containing 3% BSA. The wells were washed four times with 100 μL TPB. […] The microplate was gently shaken with an orbital shaker at room temperature for 3-4 hours. The wells were washed three times with 100 μL with TPB containing 1% BSA and three times with water containing 0.05% Tween™ 20. To the washed plate was added 150 μL of a substrate buffer composed of citric acid (25 mM) and sodium phosphate dibasic buffer (50 mM, pH 5.0) containing 0.06% hydrogen peroxide and 0.04% o-phenylenediamine hydrochloride. After 20 min. at room temperature with shaking, the reaction was stopped with 50 μL of 2.5 N HCl.
(§5) The cross reactivities of AAMU-Ab and 1X-Ab were tested using a wide variety of caffeine metabolites and structural analogs (Table 2 below).

AAMU-Ab = test: Competitive antigen ELISA, cross-reactivity of AAMU-Ab; format: binding, rabbit; conditions: 0 = absence of inhibition or inhibition no higher than 40% at highest concentration tested (5 × 10^−3 M)
Method: as §1, §2, §3, §4, §5

[1] = cited from earlier work

Row | SMILES | % Cross-Reaction 1X-Ab (1X-Ab) [%] | % Cross-Reaction AAMU-Ab (AAMU-Ab) | adverse reactions to dapsone ([1]; fast acetylators) [%] | adverse reactions to dapsone ([1]; slow acetylators) [%]
1 | O=c1[nH]c(=O)c2[nH]cnc2[nH]1 [Xanthine] | 0 | 0^a % |  | 
2 | Cn1c(=O)[nH]c2nc[nH]c2c1=O [1-Methyl Xanthine (1X), 1-Methyl Xanthine] | 100 | 0% |  | 
3 | O=c1[nH]cnc2nc[nH]c12 [Hypoxanthine] | 0 | 0% |  | 
4 | Cn1cnc2c1c(=O)[nH]c(=O)n2C [3,7-Dimethyl Xanthine (Theobromine), 3,7-Dimethyl Xanthine] | 0 | 0% |  | 
5 | Nc1ccc(S(=O)(=O)c2ccc(N)cc2)cc1 [dapsone] |  |  | 17 | 46
6 | Cn1cnc2[nH]c(=O)[nH]c(=O)c21 [7-Methyl Xanthine] | 0 | 0% |  | 
7 | Cn1c(=O)[nH]c(=O)c2[nH]cnc21 [3-Methyl Xanthine] | 0 | 0% |  | 
8 | Cn1c(=O)[nH]c2[nH]c(=O)n(C)c2c1=O [1,7-Dimethyluric acid] | 0 | 0% |  | 
9 | Cn1c(=O)[nH]c2[nH]c(=O)[nH]c2c1=O [1-Methyluric acid] | 11 | 0% |  | 
10 | CC(=O)Nc1c(N)n(C)c(=O)n(C)c1=O [5-Acetamino-6-amino-1,3-dimethyluracil] | 0 | 0% |  | 
11 | O=c1cc[nH]c(=O)[nH]1 [Uracil] | 0 | 0% |  | 
12 | Cn1c(=O)[nH]c2ncn(C)c2c1=O [1,7-Dimethyl Xanthine (Paraxanthine), 1,7-Dimethyl Xanthine] | 0.5 | 0% |  | 
13 | Nc1nc2nc[nH]c2c(=O)[nH]1 [Guanine] | 0 | 0% |  | 
14 | Cn1c(=O)c2c(ncn2C)n(C)c1=O [1,3,7-Trimethyl Xanthine (Caffeine), 1,3,7-Trimethyl Xanthine] | 0 | 0% |  | 
15 | O=c1[nH]c(=O)c2[nH]c(=O)[nH]c2[nH]1 [Uric acid] | 0 | 0% |  | 
16 | CC(=O)Nc1c(N)[nH]c(=O)[nH]c1=O [5-Acetamino-6-amino-uracil] | 0 | 0.6% |  | 
17 | Cc1nc2[nH]c(=O)[nH]c(=O)c2[nH]1 [8-Methyl Xanthine] | 0 | 0% |  | 
18 | Cn1c(=O)c2[nH]cnc2n(C)c1=O [1,3-Dimethyl Xanthine (Theophylline), 1,3-Dimethyl Xanthine] | 0.2 | 0% |  | 
19 | CC(=O)Nc1c(N)n(C)c(=O)[nH]c1=O [5-Acetamino-6-amino-1-methyluracil] | 0 | 100% |  | 
